Reference: patent publication US12590118B2, “Salt and crystal form of steroid derivative regulator” (Shanghai Hansoh Biomedical Co., Ltd., priority 2019, dated 2026)
≈ marks a conversion by molar mass, not a printed value.

How the values were obtained:
Assay type in all cases: physicochemical
[1] = Hygroscopicity experiment (DVS); details: for hygroscopicity (in words): DVS; for Hygroscopicity (25° C./80% RH): DVS vapour sorption weight gain at 80% RH
Description: The hygroscopicity of crystal forms I, II and III of the free base of Example 40 under different relative humidity conditions was investigated, so as to provide a basis for screening of the crystal form and salt of the compound, production and storage.
10 to 15 mg of the free base of Example 40 was placed in the sample chamber of DVS. DVS was carried out, and the vapour sorption weight gain percentage of the compound at 80% RH was recorded at the same time.

[2] = Competitive experiment of different crystal forms of the free base; details: 40° C.
Description: The stability among crystal forms I, II and III of the free base of Example 40 was investigated, so as to select the stable crystal form.
Multiple portions of about 20 mg of crystal forms I, II and III of the free base of Example 40 were accurately weighed, and mixed in pairs in equal amounts. Methyl tert-butyl ether and n-heptane were added respectively, and the resulting mixture was stirred at 40° C. for 7 days. The mixture was centrifuged at high speed, the supernatant was removed, and the resulting solid precipitate was vacuum dried in an oven at 40° C. and characterized by XRPD.

[3] = Solubility experiment (thermodynamic solubility at 37° C.); details: 24 hours
Description: The solubility of the free base and salt of the compound in water, Fasted State Simulated Gastric Fluid (FaSGF), Fasted State Simulated Intestinal Fluid (FaSSIF) and Fed State Simulated Intestinal Fluid (FeSSIF) was compared, so as to provide a basis for evaluating the druggability of the crystal form and salt.
About 2 to 3 mg of crystal forms I, II and III of the free base of Example 40 were weighed, suspended in 1 mL of Fasted State Simulated Gastric Fluid (FaSSGF), Fasted State Simulated Intestinal Fluid (FaSSIF), Fed State Simulated Intestinal Fluid (FeSSIF) and pure water respectively, and shaked for 24 hours. Thermodynamic solubility of the compound at 37° C. was determined using HPLC by external standard method.

SMILES	hygroscopicity (in words) [1]	Hygroscopicity (25° C./80% RH) [1] [%]	solubility in n-heptane (in words) [2]	Solubility ([3]; FaSSGF) [µg/mL]	Solubility ([3]; FaSSIF) [µg/mL]	Solubility ([3]; FeSSIF) [µg/mL]	Solubility ([3]; Water) [µg/mL]
C[C@@H]1C[C@H](C(=O)Cn2ccc(C#N)n2)[C@@]2(C)CC[C@H]3[C@@H](CC[C@@H]4C[C@](C)(O)CC[C@@H]43)[C@H]12 [Crystal form II, 1-(2-((3R,5R,8R,9R,10S,13S,14S,15R,17S)-3-Hydroxy-3,13,15-trimethylhexadecahydro-1H-cyclopenta[a]phenanthren-17-yl)-2-oxoethyl)-1H-pyrazole-3-carbonitrile]	no hygroscopicity	0.03	almost insoluble	<1	3.705 (≈ 8.75 µM)	18.495 (≈ 43.7 µM)	<1
C[C@@H]1C[C@H](C(=O)Cn2ccc(C#N)n2)[C@@]2(C)CC[C@H]3[C@@H](CC[C@@H]4C[C@](C)(O)CC[C@@H]43)[C@H]12 [Crystal form III, 1-(2-((3R,5R,8R,9R,10S,13S,14S,15R,17S)-3-Hydroxy-3,13,15-trimethylhexadecahydro-1H-cyclopenta[a]phenanthren-17-yl)-2-oxoethyl)-1H-pyrazole-3-carbonitrile]	no hygroscopicity	0.10	almost insoluble	<1	4.914 (≈ 11.6 µM)	28.166 (≈ 66.5 µM)	<1
